Assay results from patent US6136815A, “Antiviral 2,4-pyrimidinedione derivatives and process for the preparation thereof” (Korea Research Inst. of Chem. Tech., priority 1996, dated 2000).
In brackets after ≈: the same amount, converted by molar mass. Like-named read-outs stand apart in the source and are kept apart here.

Experiments:
[1] = tested on: HIV-1; assay: in vitro anti-HIV-1 assay: inhibition of the virus-induced cytopathic effect in MT-4 cells (MTT); format: cell-based; details: for S. I. (CD50 /ED50): Selectivity index = (CD50 /ED50)
Procedure: The in vitro anti-HIV-1 assays were based on the inhibition of the virus-induced cytopathic effect in MT-4 cells as described in J. Med. Chem, 34, 349 (1991).
First, MT-4 cells were suspended in a culture medium at a concentration of 1×10^4 cells/ml and infected with 500 TCID50 (50% cell culture infective dose)/well of HIV-1. Immediately after the virus infection, 100 μl of the cell suspension was brought into each well of a flat-bottomed microtiter tray containing various concentrations of the test compounds(1) to (21). After incubating for 4 or 5 days at 37° C., the number of viable cells was determined by the 3-(4,5-dimethylthiazol-2-yl)-2,5-diphenyltetrazolium bromide (MTT) method, as disclosed in J. Virol. Methods, 20, 309 (1988).

[2] = cytotoxicity: viability of mock-infected host (MT-4) cells (MTT); format: cell-based; details: human, Cytotoxic concentration that causes death of MT4 cells by 50%, MTT method, read-out: CD50 (the source's name)
Procedure: The cytotoxicity of the compounds of the present invention was assessed in parallel with their antiviral activity. It was based on the viability of mock-infected host cells as determined by the MTT methods (see J. Virol. Methods, 20, 309 (1988)). AZT was employed as a comparative compound.

[3] = Human immunodeficiency virus 1, MT4, read-out: ED50
[4] = Human immunodeficiency virus 1, MT4, Effective concentration for the inhibition of the proliferation of HIV by 50%, HIV-1-infected MT-4 cells, 4 or 5 days at 37° C., MTT method, read-out: ED50 (the source's name)

| Compound | EC50 [1, 3] | CC50 [2] | EC50 [1, 4] | S. I. (CD50 /ED50) [1] |
| --- | --- | --- | --- | --- |
| Cc1cn([C@H]2C[C@H](N=[N+]=[N-])[C@@H](CO)O2)c(=O)[nH]c1=O [AZT, 3'-azido-3'-deoxythymidine, reference compound] | 0.00116 µg/mL (≈ 0.00434 µM) | 0.558 µg/mL (≈ 2.09 µM) | – | – |
| CCOCn1c(Oc2cc(C)cc(C)c2)c(CC)c(=O)[nH]c1=O [Compound 1, 1-ethoxymethyl-5-ethyl-6-(3',5'-dimethylphenoxy)-2,4-pyrimidinedione] | – | 84.7 µg/mL (≈ 266 µM) | < 0.001 µg/mL | > 84,680 |
| CCOCn1c(Oc2cc(C)cc(C)c2)c(C(C)C)c(=O)[nH]c1=O [Compound 2, 1-ethoxymethyl-5-isopropyl-6-(3',5'-dimethylphenoxy)-2,4-pyrimidinedione] | – | 21.6 µg/mL (≈ 64.9 µM) | < 0.00256 µg/mL | > 8,425 |
| CCOCn1c(Oc2ccccc2)c(CC)c(=O)[nH]c1=O [Compound 3, 1-ethoxymethyl-5-ethyl-6-phenoxy-2,4-pyrimidinedione] | – | 16.6 µg/mL (≈ 57.3 µM) | < 0.001 µg/mL | > 16,630 |
| CCOCn1c(Oc2ccccc2)c(C(C)C)c(=O)[nH]c1=O [Compound 4, 1-ethoxymethyl-5-isopropyl-6-phenoxy-2,4-pyrimidinedione] | 0.018 µg/mL (≈ 0.0591 µM) | 92 µg/mL (≈ 302 µM) | – | > 5,111 |
| CCc1c(Oc2cc(C)cc(C)c2)n(COCc2ccccc2)c(=O)[nH]c1=O [Compound 5, 1-benzyloxymethyl-5-ethyl-6-(3',5'-dimethylphenoxy)-2,4-pyrimidinedione] | – | 29.7 µg/mL (≈ 78 µM) | < 0.00256 µg/mL | > 11,585 |
| Cc1cc(C)cc(Oc2c(C(C)C)c(=O)[nH]c(=O)n2COCc2ccccc2)c1 [Compound 6, 1-benzyloxymethyl-5-isopropyl-6-(3',5'-dimethylphenoxy)-2,4-pyrimidinedione] | – | 13.4 µg/mL (≈ 34 µM) | < 0.00256 µg/mL | > 5,246 |
| CC(C)c1c(Oc2ccccc2)n(COCc2ccccc2)c(=O)[nH]c1=O [Compound 7, 1-benzyloxymethyl-5-isopropyl-6-phenoxy-2,4-pyrimidinedione] | – | 10.2 µg/mL (≈ 27.9 µM) | < 0.001 µg/mL | > 10,210 |
| CCc1c(Oc2cc(C)cc(C)c2)n(COCCOC(C)=O)c(=O)[nH]c1=O [Compound 8, 1-(2'-acetoxyethoxymethyl)-5-ethyl-6-(3',5'-dimethylphenoxy)-2,4-pyrimidinedione] | – | 9.52 µg/mL (≈ 25.3 µM) | < 0.00256 µg/mL | > 3,718 |
| CCc1c(Oc2cc(C)cc(C)c2)n(COCCO)c(=O)[nH]c1=O [Compound 9] | – | 35.1 µg/mL (≈ 105 µM) | 0.992 µg/mL (≈ 2.97 µM) | – |
| CC(=O)OCCOCn1c(Oc2cc(C)cc(C)c2)c(C(C)C)c(=O)[nH]c1=O [Compound 10, 1-(2'-acetoxyethoxymethyl)-5-isopropyl-6-(3',5'-dimethylphenoxy)-2,4-pyrimidinedione] | – | 119 µg/mL (≈ 304 µM) | 0.00351 µg/mL (≈ 0.00899 µM) | – |
| Cc1cc(C)cc(Oc2c(C(C)C)c(=O)[nH]c(=O)n2COCCO)c1 [Compound 11, 1-(2'-hydroxyethoxymethyl)-5-isopropyl-6-(3',5'-dimethylphenoxy)-2,4-pyrimidinedione] | – | 129 µg/mL (≈ 370 µM) | 0.0107 µg/mL (≈ 0.0308 µM) | – |
| COCCOCn1c(Oc2cc(C)cc(C)c2)c(C(C)C)c(=O)[nH]c1=O [Compound 12, 1-(2'-methoxyethoxymethyl)-5-isopropyl-6-(3',5'-dimethylphenoxy)-2,4-pyrimidinedione] | – | 126 µg/mL (≈ 348 µM) | 0.0106 µg/mL (≈ 0.0291 µM) | – |
| CCOCn1c(C(=O)c2cc(C)cc(C)c2)c(CC)c(=O)[nH]c1=O [Compound 13, 1-ethoxymethyl-5-ethyl-6-(3',5'-dimethylbenzoyl)-2,4-pyrimidinedione] | – | 5.86 µg/mL (≈ 17.7 µM) | < 0.001 µg/mL | > 5,860 |
| CCOCn1c(C(=O)c2cc(C)cc(C)c2)c(C(C)C)c(=O)[nH]c1=O [Compound 14, 1-ethoxymethyl-5-isopropyl-6-(3',5'-dimethylbenzoyl)-2,4-pyrimidinedione] | – | 15.3 µg/mL (≈ 44.5 µM) | < 0.001 µg/mL | > 15,330 |
| CCOCn1c(C(=O)c2ccccc2)c(CC)c(=O)[nH]c1=O [Compound 15, 1-ethoxymethyl-5-ethyl-6-benzoyl-2,4-pyrimidinedione] | – | 103 µg/mL (≈ 342 µM) | 0.043 µg/mL (≈ 0.142 µM) | – |
| CCOCn1c(C(=O)c2ccccc2)c(C(C)C)c(=O)[nH]c1=O [Compound 16, 1-ethoxymethyl-5-isopropyl-6-benzoyl-2,4-pyrimidinedione] | – | 88.7 µg/mL (≈ 280 µM) | 0.0116 µg/mL (≈ 0.0367 µM) | – |
| CCc1c(C(=O)c2cc(C)cc(C)c2)n(COCc2ccccc2)c(=O)[nH]c1=O [Compound 17, 1-benzyloxymethyl-5-ethyl-6-(3',5'-dimethylbenzoyl)-2,4-pyrimidinedione] | < 0.001 µg/mL | 1.05 µg/mL (≈ 2.69 µM) | – | > 10,550 |
| Cc1cc(C)cc(C(=O)c2c(C(C)C)c(=O)[nH]c(=O)n2COCc2ccccc2)c1 [Compound 18, 1-benzyloxymethyl-5-isopropyl-6-(3',5 '-dimethylbenzoyl)-2,4-pyrimidinedione] | – | 11.9 µg/mL (≈ 29.3 µM) | < 0.001 µg/mL | > 11,920 |
| CC(C)c1c(C(=O)c2ccccc2)n(COCc2ccccc2)c(=O)[nH]c1=O [Compound 19, 1-benzyloxymethyl-5-isopropyl-6-benzoyl-2,4-pyrimidinedione] | < 0.01 µg/mL | 15.4 µg/mL (≈ 40.8 µM) | – | > 15,450 |
| Cc1cc(C)cc(C(=O)c2c(C(C)C)c(=O)[nH]c(=O)n2COCCO)c1 [Compound 20] | – | 51.7 µg/mL (≈ 143 µM) | 0.00367 µg/mL (≈ 0.0102 µM) | – |
| COCCOCn1c(C(=O)c2cc(C)cc(C)c2)c(C(C)C)c(=O)[nH]c1=O [Compound 21, 1-(2'-methoxyethoxymethyl)-5-isopropyl-6-(3',5'-dimethylbenzoyl)-2,4-pyrimidinedione] | – | 121 µg/mL (≈ 324 µM) | 0.0119 µg/mL (≈ 0.0318 µM) | – |
